Among the data in patent US10676408B2, “Alkynylpyrazoles as nitrification inhibitors” (BASF SE, priority 2014, dated 2020) are inhibition values, retold here.

The test system of this assay is nitrification. The assay can be described thus: Inhibition of nitrification in soil (48 well plate, ammonium sulfate, color reaction at 540 nm). To be noted: dose of 10 ppm in 1% DMSO; field soil (e.g. Limburgerhof); incubated at room temperature for up to 72 hrs; inhibition = 100 − % activity compared to control; read-out: IN (best inhibition value obtained for a compound). It is filed as cell-based. The protocol: The compounds of the invention have been tested as follows in terms of the inhibition of nitrification:
Soil was sampled fresh from a field (e.g. Limburgerhof), dried and sieved through a 500 μm sieve. Approximately 200 mg of soil were placed into each well of a 48 well plate. Compounds, or DMSO alone, were added at a concentration of 10 ppm, dissolved in 1% DMSO. 6 μmol ammonium sulfate was added per well as well as 4.8 mg NaClO3.
Subsequently, the samples were incubated at room temperature for up to 72 hrs. After the incubation period 64 mg KCl were added and mixed. 25 μl of the supernatant were placed into a fresh plate and 260 μl of a color reaction solution (from Merck Nr 1.11799.0100) were added.
Measurements were taken with a Tecan plate Reader at 540 nm wavelength.
Inhibition is calculated as x=% activity compared to control, and converted to 100−x to give the value of inhibition, rather than activity.
As to `C#Cc1ccnn1C` [Compound 2], the inhibition at 10 ppm stood at 24%.

As for `C#Cc1c(C)nn(C)c1C` [Compound 3], the inhibition at 10 ppm came to 27%.

With `C#Cc1cc(C#C)n(C)n1` [Compound 1], the inhibition at 10 ppm was found to be 55%.
